Laboratory results from patent publication US20260191835A1, “COMBINATIONS COMPRISING A MENIN-MLL INHIBITOR AND AT LEAST ONE OTHER THERAPEUTIC AGENT” (JANSSEN PHARMACEUTICA NV, priority 2022, published 2026).

Tested on: MV4-11 cells
Test: In vitro proliferation (Cell Titer Glo, 6 days) of Compound 51 in combination with gilteritinib, midostaurin or decitabine, MV4-11
Assay type: cell-based
Design: key to Synergy/antagonism call (maxR test), MV4-11 Cell Proliferation: synergy is indicated by “**”; antagonism is indicated by “*”; no asterisk: absence of any asterisk indicates an additive effect
Conditions: for combination effect on proliferation (cytotoxicity): 6-day CellTiter-Glo matrix
Procedure: 3) In Vitro Proliferation—Menin-MLL Inhibitor in Combination with FLT3 Inhibitor (Gilteritinib or Midostaurin), DNA Intercalating Agent (Idarubicin) or Hypomethylating Agent (Decitabine)
The effect of Compound 51 in combination with gilteritinib, midostaurin, idarubicin or decitabine was determined in proliferation assays.
AML cell lines MOLM-13, OCI-AML3 and MV4-11 were purchased from DSMZ. MOLM-13 were grown in RPMI medium supplemented with 10% Fetal Bovine Serum (FBS) and 1% penicillin/streptomycin. MV4-11 cells were grown in IMDM medium supplemented with 10% FBS and 1% penicillin/streptomycin. OCI-AML3 cells were cultured in 80-90% alpha-MEM (with or without ribo- and deoxyribonucleosides)+10-20% FBS. All cell lines were cultured at 37° C. in 5% CO2 atmosphere.
AML cell lines (10-20×10^3 cells/well) were seeded in 96-well plates and grown for 6 days in serum (10%)-containing medium in the presence or absence of inhibitors at the indicated concentrations. Proliferation was analyzed by means of a Cell Titer Glo assay using the […] (Promega, Madison, WI, USA), according to the manufacturer's instructions. Data are mean with standard deviation from two to four independent experiments in technical triplicates.
R-based Biochemically Intuitive Generalized Loewe (BIGL) model implemented with a highest single agent (HSA) null model. Specifically, the BIGL methodology was applied to calculate drug-drug interactions (Van der Borght, K., Tourny, A., Bagdziunas, R. et al. BIGL: Biochemically Intuitive Generalized Loewe null model for prediction of the expected combined effect compatible with partial agonism and antagonism. Sci Rep 7, 17935 (2017); Thas, O., Tourny, A., Verbist, B., Hawinkel, S., Nazarov, M., Mutambanengwe, K., & Bijnens, L. Statistical detection of synergy: New methods and a comparative study. Pharmaceutical Statistics (2021)).
Synergy matrix results of the BIGL analysis of the cell line data with HSA as mean model calculated on the basis of the cellular metabolic activity using Cell Titer-Glo assay. Bootstrap confidence intervals are indicated. Effect sizes and their confidence intervals are shown. […] No significant average effect if zero is included in the interval.

[1] = Compound 51 0.1 μm + Decitabine 0.15 μM
[2] = Compound 51 0.1 μm + Decitabine 1.5 μM

CC(=O)N1CCC(CN2CC[C@@H](Cc3cn(-c4ccc(F)cc4C(=O)N(C)C(C)C)c4cncc(C)c34)C2)CC1 [Compound 51]
Effect size (BIGL, HSA null model), MV4-11 Cell Proliferation (Compound 51 0.05 μm + Gilteritinib 0.3 μM): −0.02 | Effect size (BIGL, HSA null model), MV4-11 Cell Proliferation (Compound 51 0.05 μm + Gilteritinib 1 μM): −0.02 | Effect size (BIGL, HSA null model), MV4-11 Cell Proliferation (Compound 51 0.05 μm + Midostaurin 0.0012 μM): −0.02 | Effect size (BIGL, HSA null model), MV4-11 Cell Proliferation (Compound 51 0.05 μm + Midostaurin 0.006 μM): −0.07 | Effect size (BIGL, HSA null model), MV4-11 Cell Proliferation (Compound 51 0.05 μm + Midostaurin 0.025 μM): −0.14 | Effect size (BIGL, HSA null model), MV4-11 Cell Proliferation (Compound 51 0.05 μm + Midostaurin 0.05 μM): −0.13 | Effect size (BIGL, HSA null model), MV4-11 Cell Proliferation (Compound 51 0.05 μm + Midostaurin 0.1 μM): −0.04 | Effect size (BIGL, HSA null model), MV4-11 Cell Proliferation (Compound 51 0.05 μm + Midostaurin 0.5 μM): 0.03 | Effect size (BIGL, HSA null model), MV4-11 Cell Proliferation (Compound 51 0.1 μm + Decitabine 0.0015 μM): 0.01 | Effect size (BIGL, HSA null model), MV4-11 Cell Proliferation (Compound 51 0.1 μm + Decitabine 0.035 μM): −0.04 | Effect size (BIGL, HSA null model), MV4-11 Cell Proliferation [1]: −0.09 | Synergy/antagonism call (maxR test), MV4-11 Cell Proliferation [1]: ** | Effect size (BIGL, HSA null model), MV4-11 Cell Proliferation [2]: −0.11 | Synergy/antagonism call (maxR test), MV4-11 Cell Proliferation [2]: ** | Effect size (BIGL, HSA null model), MV4-11 Cell Proliferation (Compound 51 0.1 μm + Decitabine 3 μM): −0.06 | Effect size (BIGL, HSA null model), MV4-11 Cell Proliferation (Compound 51 0.1 μm + Gilteritinib 0.0005 μM): −0.07 | Effect size (BIGL, HSA null model), MV4-11 Cell Proliferation (Compound 51 0.1 μm + Gilteritinib 0.005 μM): −0.03 | Effect size (BIGL, HSA null model), MV4-11 Cell Proliferation (Compound 51 0.1 μm + Gilteritinib 0.01 μM): −0.02 | Effect size (BIGL, HSA null model), MV4-11 Cell Proliferation (Compound 51 0.1 μm + Gilteritinib 0.05 μM): −0.02 | Effect size (BIGL, HSA null model), MV4-11 Cell Proliferation (Compound 51 0.1 μm + Gilteritinib 0.3 μM): −0.02 | Effect size (BIGL, HSA null model), MV4-11 Cell Proliferation (Compound 51 0.1 μm + Gilteritinib 1 μM): −0.02 | Effect size (BIGL, HSA null model), MV4-11 Cell Proliferation (Compound 51 0.1 μm + Midostaurin 0.0012 μM): −0.03 | Effect size (BIGL, HSA null model), MV4-11 Cell Proliferation (Compound 51 0.1 μm + Midostaurin 0.006 μM): −0.06 | Effect size (BIGL, HSA null model), MV4-11 Cell Proliferation (Compound 51 0.1 μm + Midostaurin 0.025 μM): −0.08 | Effect size (BIGL, HSA null model), MV4-11 Cell Proliferation (Compound 51 0.1 μm + Midostaurin 0.05 μM): −0.09 | Effect size (BIGL, HSA null model), MV4-11 Cell Proliferation (Compound 51 0.1 μm + Midostaurin 0.1 μM): −0.04 | Effect size (BIGL, HSA null model), MV4-11 Cell Proliferation (Compound 51 0.1 μm + Midostaurin 0.5 μM): 0.03 | Effect size (BIGL, HSA null model), MV4-11 Cell Proliferation (Compound 51 0.5 μm + Decitabine 0.0015 μM): 0 | Effect size (BIGL, HSA null model), MV4-11 Cell Proliferation (Compound 51 0.5 μm + Decitabine 0.035 μM): −0.01 | Effect size (BIGL, HSA null model), MV4-11 Cell Proliferation (Compound 51 0.5 μm + Decitabine 0.15 μM): −0.02 | Effect size (BIGL, HSA null model), MV4-11 Cell Proliferation (Compound 51 0.5 μm + Gilteritinib 0.0005 μM): −0.02 | Effect size (BIGL, HSA null model), MV4-11 Cell Proliferation (Compound 51 0.5 μm + Gilteritinib 0.005 μM): −0.03 | Effect size (BIGL, HSA null model), MV4-11 Cell Proliferation (Compound 51 0.5 μm + Gilteritinib 0.01 μM): −0.02 | Effect size (BIGL, HSA null model), MV4-11 Cell Proliferation (Compound 51 0.5 μm + Gilteritinib 0.05 μM): −0.02 | Effect size (BIGL, HSA null model), MV4-11 Cell Proliferation (Compound 51 0.5 μm + Gilteritinib 0.3 μM): −0.02 | Effect size (BIGL, HSA null model), MV4-11 Cell Proliferation (Compound 51 0.5 μm + Gilteritinib 1 μM): −0.02 | Effect size (BIGL, HSA null model), MV4-11 Cell Proliferation (Compound 51 1 μm + Decitabine 0.0015 μM): 0 | Effect size (BIGL, HSA null model), MV4-11 Cell Proliferation (Compound 51 1 μm + Decitabine 0.035 μM): −0.01 | Effect size (BIGL, HSA null model), MV4-11 Cell Proliferation (Compound 51 1 μm + Decitabine 0.15 μM): −0.02 | Effect size (BIGL, HSA null model), MV4-11 Cell Proliferation (Compound 51 1 μm + Decitabine 1.5 μM): −0.03 | Effect size (BIGL, HSA null model), MV4-11 Cell Proliferation (Compound 51 1 μm + Decitabine 3 μM): −0.03 | Effect size (BIGL, HSA null model), MV4-11 Cell Proliferation (Compound 51 1 μm + Gilteritinib 0.0005 μM): −0.02 | Effect size (BIGL, HSA null model), MV4-11 Cell Proliferation (Compound 51 1 μm + Gilteritinib 0.005 μM): −0.02 | Effect size (BIGL, HSA null model), MV4-11 Cell Proliferation (Compound 51 1 μm + Gilteritinib 0.01 μM): −0.02 | Effect size (BIGL, HSA null model), MV4-11 Cell Proliferation (Compound 51 1 μm + Gilteritinib 0.05 μM): −0.02 | Effect size (BIGL, HSA null model), MV4-11 Cell Proliferation (Compound 51 1 μm + Gilteritinib 0.3 μM): −0.02 | Effect size (BIGL, HSA null model), MV4-11 Cell Proliferation (Compound 51 1 μm + Gilteritinib 1 μM): −0.02 | Effect size (BIGL, HSA null model), MV4-11 Cell Proliferation (Compound 51 1 μm + Midostaurin 0.0012 μM): 0.02 | Effect size (BIGL, HSA null model), MV4-11 Cell Proliferation (Compound 51 1 μm + Midostaurin 0.006 μM): 0.01 | Effect size (BIGL, HSA null model), MV4-11 Cell Proliferation (Compound 51 1 μm + Midostaurin 0.025 μM): 0 | Effect size (BIGL, HSA null model), MV4-11 Cell Proliferation (Compound 51 1 μm + Midostaurin 0.05 μM): 0 | Effect size (BIGL, HSA null model), MV4-11 Cell Proliferation (Compound 51 1 μm + Midostaurin 0.1 μM): 0 | Effect size (BIGL, HSA null model), MV4-11 Cell Proliferation (Compound 51 1 μm + Midostaurin 0.5 μM): 0.03 | combination effect on proliferation (cytotoxicity) (in combination with decitabine, MV4-11): synergistically cytotoxic | combination effect on proliferation at low doses of gilteritinib (in combination with gilteritinib 10 nM, MV4-11): synergistic effect | combination effect on proliferation (cytotoxicity) (in combination with gilteritinib, MV4-11): not antagonistically cytotoxic | combination effect on proliferation (cytotoxicity) (in combination with midostaurin, MV4-11): not antagonistically cytotoxic
